Counter-ions that a name gives are not always drawn. Like-named read-outs stand apart in the source and are kept apart here. Blank lines part the entries; values can stand above or below the molecule they belong to.
Tests used:
[1] = test system: P. falciparum 3D7 gametocytes; experiment: alamarBlue gametocyte viability assay, strain 3D7; assay type: cell-based, Plasmodium falciparum
[2] = test system: P. falciparum HB3 gametocytes; experiment: alamarBlue gametocyte viability assay, strain HB3; assay type: cell-based, Plasmodium falciparum
Procedure: (§1) Briefly, gametocyte cultures were set up at 0.1% parasitemia and on days 9–10 treated with 50 mM N-acetylglucosamine (NAG) to block further asexual growth. Stage III–V gametocytes were isolated by Percoll density gradient centrifugation on day 12 and returned to culture for 24 hrs before being used in the assay[9].
(§2) Briefly, 2.5 μl/well incomplete medium was dispensed into each well of 1,536-well plates using the Multidrop Combi followed by 23 nl compound transferring using the NX-TR Pintool (WAKO Scientific Solutions, San Diego, CA). Then, 2.5 μl/well of gametocytes was dispensed with a seeding density of 20,000 cells/well using the Multidrop Combi. The assay plates were incubated for 72 hrs at 37°C with 5% CO2.

[3] = test system: P. falciparum Dd2 gametocytes; experiment: alamarBlue gametocyte viability assay, strain Dd2; assay type: cell-based, Plasmodium falciparum
Procedure: as §1, §2

HepG2 cells [4] = conditions: for % Max response: HepG2 cells
Source text: (§3) Growth medium was made with Dulbecco's Modified Eagle Medium with 10% fetal bovine serum (FBS).

[5] = test system: P. falciparum asexual parasites; set-up: method as in earlier work; conditions: SI Table 3, previous screens, cited from earlier work; for IC50: read-out: Activity against asexual parasites IC50
HepG2 cells [6] = experiment: cells; conditions: Homo sapiens; for Emax: HepG2, read-out: % Max response; for IC50: HepG2, read-out: IC50 in HepG2 cells
Source text: as §3

[7] = 11 concentrations, 1:3 dilution, Inactive = no significant activity at 46 µM
[8] = Plasmodium falciparum, 3D7, SI Table 3, structure clusters, read-out: Activity against gametocytes Efficacy (% response)
[9] = Plasmodium falciparum, 3D7, SI Table 3, structure clusters, read-out: Activity against gametocytes IC50
[10] = P. falciparum 3D7 gametocytes, mean of at least 3 independent experiments, read-out: Gametocyte IC50
[11] = strain profiling, 11 concentrations, 1:3 dilution, three times, read-out: HB3-gametocytes IC50
[12] = strain profiling, 11 concentrations, 1:3 dilution, three times, read-out: Dd2-gametocytes IC50
[13] = Plasmodium falciparum, 3D7, strain profiling, 11 concentrations, 1:3 dilution, three times, read-out: 3D7-gametocytes IC50
[14] = Plasmodium falciparum, HB3, strain profiling, 11 concentrations, 1:3 dilution, three times, read-out: HB3-gametocytes IC50
[15] = Plasmodium falciparum, DD2, strain profiling, 11 concentrations, 1:3 dilution, three times, read-out: Dd2-gametocytes IC50
[16] = SI Table 3, structure clusters, read-out: Activity against gametocytes IC50
[17] = Plasmodium falciparum, 3D7, P. falciparum 3D7 gametocytes, mean of at least 3 independent experiments, read-out: Gametocyte IC50

Molecule: Plicamycin
IC50 ([1]; read-out: Gametocyte IC50, P. falciparum 3D7 gametocytes, mean of at least 3 independent experiments): 0.833 µM
IC50 ([2]; read-out: HB3-gametocytes IC50, strain profiling, 11 concentrations, 1:3 dilution, three times): 2.96 µM
IC50 ([3]; read-out: Dd2-gametocytes IC50, strain profiling, 11 concentrations, 1:3 dilution, three times): 2.35 µM
IC50 in HepG2 cells (HepG2 cells [4]; [7]): Inactive
% Max response (HepG2 cells [4]): 3%

IC50 [1, 9]: 35.5 µM
Molecule: CN1C[C@@H](NS(=O)(=O)N(C)C)C[C@@H]2c3cccc4c3c(cn4C)C[C@H]21 [Mesulergine, reference compound]
Emax [1, 8]: 64%
Activity against asexual parasites Efficacy (% response) [5]: inactive
Activity against asexual parasites IC50 [5]: inactive

IC50 [1, 10]: 0.345 µM
IC50 [2, 11]: 0.235 µM
IC50 in HepG2 cells (HepG2 cells [4]; [7]): Inactive
Molecule: C=CC1CN2CCC1CC2C(O)c1ccnc2ccc(OC)cc12.C=CC1CN2CCC1CC2C(O)c1ccnc2ccc(OC)cc12.O=S(=O)(O)O (stereo not shown) [Quinine hemisulfate]
IC50 [3, 12]: 0.083 µM
% Max response (HepG2 cells [4]): 2%

Molecule: CN(C)CCC=C1c2ccccc2CCc2ccccc21 [Amitriptyline hydrochloride]
Activity against asexual parasites Efficacy (% response) [5]: -82.37 % response
IC50 [5]: 11.2 µM

IC50 [1, 10]: 0.935 µM
IC50 [2, 11]: 0.332 µM
IC50 [3, 12]: 1.48 µM
IC50 in HepG2 cells (HepG2 cells [4]; [7]): Inactive
Molecule: COc1ncc(-c2ccc3nccc(-c4ccnnc4)c3c2)cc1NS(=O)(=O)c1ccc(F)cc1F [GSK-458]
% Max response (HepG2 cells [4]): 33%

Molecule: CC(=O)OC[C@H]1O[C@@H]([S-])[C@H](OC(C)=O)[C@@H](OC(C)=O)[C@@H]1OC(C)=O.CCP(CC)CC.[Au+] [Auranofin]
IC50 [1, 10]: 0.935 µM
IC50 [2, 11]: 1.05 µM
IC50 [3, 12]: 1.18 µM
% Max response (HepG2 cells [4]): -98%
IC50 (HepG2 cells [4]; read-out: IC50 in HepG2 cells, 11 concentrations, 1:3 dilution, Inactive = no significant activity at 46 µM): 9.35 µM

IC50 ([1]; Plasmodium falciparum, 3D7, read-out: Activity against gametocytes IC50, SI Table 3, structure clusters): 22.4 µM
Molecule: CN(C)CCCN1c2ccccc2C(C)(C)c2ccccc21 [Dimetacrine, reference compound]
Emax ([1]; Plasmodium falciparum, 3D7, read-out: Activity against gametocytes Efficacy (% response), SI Table 3, structure clusters): 77%
Activity against asexual parasites Efficacy (% response) [5]: inactive
Activity against asexual parasites IC50 [5]: inactive

Molecule: CNCCCN1c2ccccc2CCc2ccccc21 [Desipramine hydrochloride]
Emax [1, 8]: 101%
Activity against asexual parasites Efficacy (% response) [5]: inactive
Activity against asexual parasites IC50 [5]: inactive

Molecule: CN(C)CCCN1c2ccccc2CCc2ccc(Cl)cc21 [Clomipramine]
Activity against asexual parasites Efficacy (% response) [5]: inactive
Activity against asexual parasites IC50 [5]: inactive

IC50 in HepG2 cells (HepG2 cells [4]; [7]): Inactive
Molecule: COc1ccc(C2NC(=S)N3C(c4ccc(OC)c(OC)c4)NC(=S)N23)cc1OC (stereo not shown) [NSC174938]

IC50 [1, 9]: 28.2 µM
Molecule: CCN(CC)C(=O)N[C@H]1C[C@@H]2c3cccc4[nH]cc(c34)C[C@H]2N(C)C1 [Terguride, reference compound]
Emax [1, 8]: 80.7%
Activity against asexual parasites Efficacy (% response) [5]: inactive
Activity against asexual parasites IC50 [5]: inactive

Molecule: CCCCN(CCCC)CC(O)c1cc(Cl)cc2c1-c1ccc(Cl)cc1/C2=C/c1ccc(Cl)cc1 (stereo not shown) [Lumefantrine]
Emax [1, 8]: 76.5%
IC50 [1, 13]: 0.059 µM
IC50 [2, 14]: 0.033 µM
IC50 [3, 15]: 0.013 µM
Activity against asexual parasites Efficacy (% response) [5]: -93.57 % response
IC50 [5]: 0.02 µM

IC50 [1, 9]: 12.6 µM
IC50 [1, 16]: 22.4 µM
Molecule: CN1C[C@H](CNC(=O)OCc2ccccc2)C[C@@H]2c3cccc4c3c(cn4C)C[C@H]21 [Metergoline, reference compound]
Activity against asexual parasites Efficacy (% response) [5]: -71.24 % response
IC50 [5]: 12.6 µM

Molecule: COC(=O)C[C@](O)(CCCC(C)(C)O)C(=O)O[C@@H]1C(OC)=C[C@]23CCCN2CCc2cc4c(cc2[C@H]13)OCO4 [Omacetaxine]
IC50 [1, 10]: 0.083 µM
IC50 in HepG2 cells (HepG2 cells [4]; [7]): Curve not complete
% Max response (HepG2 cells [4]): -27%

Molecule: CN(C)CCCN1c2ccccc2CCc2ccc(Cl)cc21 [Clomipramine hydrochloride]
Activity against asexual parasites Efficacy (% response) [5]: inactive
Activity against asexual parasites IC50 [5]: inactive

Molecule: CN1CCC(=C2c3ccccc3C=Cc3ccccc32)CC1 [Cyproheptadine hydrochloride]
Activity against gametocytes Efficacy (% response) ([1]; SI Table 3, structure clusters): -80.99 % response
Activity against asexual parasites Efficacy (% response) [5]: inactive
Activity against asexual parasites IC50 [5]: inactive

IC50 [1, 9]: 22.4 µM
Molecule: CO[C@]12C[C@@H](COC(=O)c3cncc(Br)c3)CN(C)[C@@H]1Cc1cn(C)c3cccc2c13 [Nicergoline, reference compound]
Emax [1, 8]: 39.4%
Activity against asexual parasites Efficacy (% response) [5]: inactive
Activity against asexual parasites IC50 [5]: inactive

Molecule: CC1=C(CO)C(=O)O[C@@H]([C@@H](C)[C@H]2CC[C@H]3[C@@H]4C[C@H]5O[C@]56[C@@H](O)C=CC(=O)[C@]6(C)[C@H]4CC[C@]23C)C1 [Withaferin A]
IC50 [1, 17]: 0.372 µM
IC50 [2, 14]: 1.33 µM
IC50 [3, 15]: 0.372 µM
Emax (HepG2 cells [6]): -80%
IC50 (HepG2 cells [6]): 9.35 µM

IC50 [1, 9]: 5.62 µM
IC50 [1, 16]: 10 µM
Molecule: CN(C)CCC=C1c2ccccc2C=Cc2ccccc21 [Cyclobenzaprine hydrochloride, reference compound]
Emax [1, 8]: 94.8%
Activity against asexual parasites Efficacy (% response) [5]: inactive
Activity against asexual parasites IC50 [5]: inactive

Molecule: CN1CCC(=C2c3ccccc3C=Cc3ccccc32)CC1 [Cyproheptadine]
Activity against gametocytes Efficacy (% response) ([1]; SI Table 3, structure clusters): -122.81 % response
Activity against asexual parasites Efficacy (% response) [5]: inactive
Activity against asexual parasites IC50 [5]: inactive

Molecule: CNCCC=C1c2ccccc2CCc2ccccc21 [Nortriptyline hydrochloride, reference compound]
Emax [1, 8]: 111%
IC50 [1, 9]: 22.4 µM
IC50 [1, 16]: 35.5 µM
Activity against asexual parasites Efficacy (% response) [5]: inactive
Activity against asexual parasites IC50 [5]: inactive

IC50 [1, 9]: 22.4 µM
Activity against gametocytes IC50 ([1]; SI Table 3, structure clusters): inactive
Molecule: CCCN1C[C@H](CSC)C[C@@H]2c3cccc4[nH]cc(c34)C[C@H]21 [Pergolide methanesulfonate, reference compound]
Emax [1, 8]: 83.5%
Activity against asexual parasites Efficacy (% response) [5]: inactive
Activity against asexual parasites IC50 [5]: inactive

IC50 [1, 9]: 17.8 µM
Molecule: C=CCN1C[C@H](C(=O)N(CCCN(C)C)C(=O)NCC)C[C@@H]2c3cccc4[nH]cc(c34)C[C@H]21 [Cabergoline, reference compound]
Emax [1, 8]: 80.1%
Activity against asexual parasites Efficacy (% response) [5]: -63.65 % response
IC50 [5]: 17.8 µM

Molecule: CC[C@@H](C(=O)[C@@H](C)[C@@H](O)[C@H](C)[C@@H]1O[C@@H]([C@@H](CC)C(=O)O)CC[C@@H]1C)[C@H]1O[C@]2(C=C[C@@H](O)[C@]3(CC[C@@](C)([C@H]4CC[C@](O)(CC)[C@H](C)O4)O3)O2)[C@H](C)C[C@@H]1C [Salinomycin sodium]
IC50 [1, 13]: 0.118 µM
IC50 ([1]; Plasmodium falciparum, P. falciparum 3D7 gametocytes, mean of at least 3 independent experiments, read-out: Gametocyte IC50): 0.194 µM
IC50 ([2]; Plasmodium falciparum, HB3, read-out: HB3-gametocytes IC50): 0.372 µM
IC50 ([3]; Plasmodium falciparum, DD2, read-out: Dd2-gametocytes IC50): 0.296 µM
Emax (HepG2 cells [6]): -69%
IC50 (HepG2 cells [6]): 29.6 µM

IC50 [1, 16]: 35.5 µM
Molecule: CN(C)CCC=C1c2ccccc2C(C)(C)c2ccccc21.Cl [Melitracen hydrochloride, reference compound]
Activity against gametocytes Efficacy (% response) ([1]; SI Table 3, structure clusters): -103.56 % response
Activity against asexual parasites Efficacy (% response) [5]: inactive
Activity against asexual parasites IC50 [5]: inactive

IC50 [1, 17]: 1.05 µM
IC50 [2, 14]: 1.48 µM
IC50 [3, 15]: 2.64 µM
IC50 (HepG2 cells [6]): 11.8 µM
Molecule: COc1ccc(C[C@H](N)C(=O)N[C@H]2[C@@H](O)[C@H](n3cnc4c(N(C)C)ncnc43)O[C@@H]2CO)cc1 [Puromycin]
Emax (HepG2 cells [6]): -71%

Activity against gametocytes IC50 ([1]; SI Table 3, structure clusters): inactive
Molecule: NC(=O)N1c2ccccc2CC(=O)c2ccccc21 [Oxcarbazepine, reference compound]
Activity against gametocytes Efficacy (% response) ([1]; SI Table 3, structure clusters): inactive
Activity against asexual parasites Efficacy (% response) [5]: inactive
Activity against asexual parasites IC50 [5]: inactive

IC50 [1, 9]: 19.9 µM
Molecule: CN(CCCN1c2ccccc2CCc2ccccc21)CC(=O)c1ccc(Cl)cc1 [Lofepramine hydrochloride, reference compound]
Emax [1, 8]: 103%
Activity against asexual parasites Efficacy (% response) [5]: -103.99 % response
IC50 [5]: 10 µM

Molecule: CN(C)CCCN1c2ccccc2CCc2ccccc21 [Imipramine hydrochloride]
Activity against asexual parasites Efficacy (% response) [5]: inactive
Activity against asexual parasites IC50 [5]: inactive

IC50 [1, 9]: 22.4 µM
Activity against gametocytes IC50 ([1]; SI Table 3, structure clusters): inactive
Molecule: CC(CN(C)C)CN1c2ccccc2CCc2ccccc21 (stereo not shown) [Trimipramine maleate, reference compound]
Emax [1, 8]: 47%
Activity against asexual parasites IC50 [5]: inactive
IC50 [5]: 30.7 µM

IC50 [1, 17]: 0.118 µM
IC50 [2, 14]: 0.074 µM
IC50 [3, 15]: 0.094 µM
IC50 (HepG2 cells [6]): 0.148 µM
Molecule: CC(C)C[C@H](NC(=O)[C@H](Cc1ccccc1)NC(=O)c1cnccn1)B(O)O [Bortezomib]
Emax (HepG2 cells [6]): -82%

Molecule: CNCCCC1c2ccccc2C=Cc2ccccc21 [Protriptyline hydrochloride]
Emax [1, 8]: 81.7%
Activity against asexual parasites Efficacy (% response) [5]: inactive
Activity against asexual parasites IC50 [5]: inactive

— publication PMC3894558, “Chemical signatures and new drug targets for gametocytocidal drug development” (Scientific Reports, 2014)
